Reference: ChEMBL document CHEMBL1131983, “Synthesis of piperazine derivatives and evaluation of their antihistamine and antibradykinin effects” (Bioorg Med Chem Lett, 1999)

Columns and labels:
Type in all cases: tissue-based
[1] = molecular target: T1, B2 bradykinin receptor (Rattus norvegicus) (UniProt P25023); assay: In vitro inhibitory activity against Bradykinin receptor B2 in isolated rat ileum at 0.1 uM
T1 sequence (whole entry): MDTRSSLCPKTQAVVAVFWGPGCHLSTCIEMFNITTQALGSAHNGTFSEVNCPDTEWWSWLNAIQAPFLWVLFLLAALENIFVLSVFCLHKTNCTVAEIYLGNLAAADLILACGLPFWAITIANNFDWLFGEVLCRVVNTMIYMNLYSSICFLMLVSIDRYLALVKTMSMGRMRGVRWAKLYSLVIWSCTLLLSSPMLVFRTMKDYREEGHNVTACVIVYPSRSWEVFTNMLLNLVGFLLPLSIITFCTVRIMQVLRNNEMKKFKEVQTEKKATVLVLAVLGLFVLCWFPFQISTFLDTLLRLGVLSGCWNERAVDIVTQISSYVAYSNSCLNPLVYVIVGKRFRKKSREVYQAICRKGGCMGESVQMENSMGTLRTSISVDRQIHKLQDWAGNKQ

[2] = molecular target: Histamine H1 receptor (Cavia porcellus) (UniProt P31389); assay: In vitro inhibitory activity against histamine H1 receptor in guinea-pig ileum at 0.1 uM
Histamine H1 receptor (Cavia porcellus), sequence (P31389 whole entry): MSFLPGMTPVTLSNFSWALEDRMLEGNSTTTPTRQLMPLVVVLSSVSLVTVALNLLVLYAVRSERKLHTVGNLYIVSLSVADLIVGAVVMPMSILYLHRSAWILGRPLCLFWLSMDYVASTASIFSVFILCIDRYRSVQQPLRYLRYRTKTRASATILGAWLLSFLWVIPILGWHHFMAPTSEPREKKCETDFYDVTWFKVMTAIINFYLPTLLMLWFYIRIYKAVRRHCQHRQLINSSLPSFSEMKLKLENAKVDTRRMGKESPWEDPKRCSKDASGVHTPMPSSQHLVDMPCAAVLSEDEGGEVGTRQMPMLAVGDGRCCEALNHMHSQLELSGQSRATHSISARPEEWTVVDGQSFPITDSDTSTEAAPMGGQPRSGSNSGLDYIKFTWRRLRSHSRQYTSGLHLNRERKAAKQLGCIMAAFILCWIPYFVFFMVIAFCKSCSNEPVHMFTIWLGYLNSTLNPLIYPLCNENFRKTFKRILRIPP

[3] = molecular target: T1, B2 bradykinin receptor (Rattus norvegicus); assay: In vitro inhibitory activity against Bradykinin receptor B2 in isolated rat ileum at 0.1uM; '-' indicates activation

| inhibition [1] | inhibition [2] | inhibition [3] | Structure (SMILES) |
| --- | --- | --- | --- |
| 25.4% | 52.7% |  | O=C(O)COC(CCN1CCN(C(c2ccccc2)c2ccc(Cl)cc2)CC1)c1ccccc1 (centres undefined) |
| 11.9% | 63% |  | Clc1ccc(C(c2ccccc2)N2CCN(CCCOCc3cccc4ccccc34)CC2)cc1 (centres undefined) |
| 9.1% | 43.7% |  | O=C(O)C(OCCN1CCN(C(c2ccccc2)c2ccc(Cl)cc2)CC1)c1ccccc1 (centres undefined) |
| 33.4% | 42.9% |  | CC(C)(COCC(=O)O)CN1CCN(C(c2ccccc2)c2ccc(Cl)cc2)CC1 (centres undefined) |
| 26.6% | 57% |  | O=C(O)COC(CN1CCN(C(c2ccccc2)c2ccc(Cl)cc2)CC1)c1cccc2ccccc12 (centres undefined) |
| 45.6% | 12.5% |  | CC(CN1CCN(C(c2ccccc2)c2ccc(Cl)cc2)CC1)(OCC(=O)O)c1ccccc1 (centres undefined) |
| 27% | 50.7% |  | O=C(O)COCCN1CCN(C(c2ccccc2)c2ccc(Cl)cc2)CC1 (centres undefined) |
|  | 11% | -3.7% | O=C(O)COC(CCc1ccccc1)CN1CCN(C(c2ccccc2)c2ccc(Cl)cc2)CC1 (centres undefined) |
|  | 33% | -10% | COc1cccc(COCCN2CCN(C(c3ccccc3)c3ccc(Cl)cc3)CC2)c1 (centres undefined) |
| 17.7% | 26.4% |  | Clc1ccc(C(c2ccccc2)N2CCN(CCCOCc3ccc4ccccc4c3)CC2)cc1 (centres undefined) |
| 12.6% | 10.2% |  | CCC(OCCN1CCN(C(c2ccccc2)c2ccc(Cl)cc2)CC1)C(=O)O (centres undefined) |
| 8.7% | 78.5% |  | COc1ccc(COCCN2CCN(C(c3ccccc3)c3ccc(Cl)cc3)CC2)cc1 (centres undefined) |
| 5% | 77.5% |  | CC(C)c1ccc(COCCN2CCN(C(c3ccccc3)c3ccc(Cl)cc3)CC2)cc1 (centres undefined) |
|  | 10% | -9.5% | Clc1ccc(C(c2ccccc2)N2CCN(CCOCc3ccc4ccccc4c3)CC2)cc1 (centres undefined) |
| 17% | 20% |  | Clc1ccc(C(c2ccccc2)N2CCN(CCOCc3cccc4ccccc34)CC2)cc1 (centres undefined) |
| 25% | 14.3% |  | CC(COCC(=O)O)CN1CCN(C(c2ccccc2)c2ccc(Cl)cc2)CC1 (centres undefined) |
| 36.6% | 28.4% |  | O=C(O)Cc1ccc(COCCN2CCN(C(c3ccccc3)c3ccc(Cl)cc3)CC2)cc1 (centres undefined) |
